From patent publication US11884676B2, “Substituted pyrimido[1,2-b]pyridazines as positive allosteric modulators of the muscarinic acetylcholine receptor M4” (Vanderbilt University, priority 2020, dated 2024)

Biological target: T1, Human M4 (Homo sapiens, UniProt P08173)
T1 construct: expressed in transfected cells
T1 sequence (P08173 1-479): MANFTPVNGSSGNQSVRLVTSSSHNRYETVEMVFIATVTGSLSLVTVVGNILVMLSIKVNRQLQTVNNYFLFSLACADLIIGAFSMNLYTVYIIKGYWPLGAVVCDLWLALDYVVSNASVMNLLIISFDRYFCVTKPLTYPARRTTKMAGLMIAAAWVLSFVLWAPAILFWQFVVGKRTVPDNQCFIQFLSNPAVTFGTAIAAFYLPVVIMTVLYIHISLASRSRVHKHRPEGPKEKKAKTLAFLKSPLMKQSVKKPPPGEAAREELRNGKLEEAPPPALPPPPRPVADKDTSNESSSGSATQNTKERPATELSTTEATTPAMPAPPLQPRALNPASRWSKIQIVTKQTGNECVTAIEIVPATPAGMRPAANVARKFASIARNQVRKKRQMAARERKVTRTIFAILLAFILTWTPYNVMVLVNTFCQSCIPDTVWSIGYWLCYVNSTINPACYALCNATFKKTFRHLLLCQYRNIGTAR
Test: mAChR M4 cell-based functional assay (calcium flux, PAM mode)
Conditions: hM4-Gqi5 CHO-K1 cells; for Emax at 30 µM: CHO-K1, % ACh maximum at 30 μM; for EC50: concentration-dependent increase in the EC20 acetylcholine response
In short: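 PAM potency (EC50) and Emax came from four-parameter fits of the rise in EC20 acetylcholine-evoked calcium signal (Fluo-4, FDSS, 1 Hz). Human M4/Gqi5 CHO-K1 stable line; 11-point 1:3 compound series preceded ACh EC20 addition at 144 s, with EC80 ACh added at 230 s.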

Row | Structure (SMILES) | Emax at 30 µM [%] | EC50 [nM]
1 | [2H]C1(Oc2ccc3c(c2)OCCO3)CCN(c2nn3c(=O)cc(C(F)(F)F)nc3cc2C)CC1 [Compound 49, 7-(4-((2,3-dihydrobenzo[b][1,4]dioxin-6-yl)oxy)piperidin-1-yl-4-d)-8-methyl-2-(trifluoromethyl)-4H-pyrimido[1,2-b]pyridazin-4-one] | 93 | 10
2 | [2H]C1([2H])Oc2ccc(O[C@@H]3CCN(c4nn5c(=O)cc(C)nc5cc4C)C[C@H]3F)cc2OC1([2H])[2H] [Compound 51, 7-((3R,4R)-4-((2,3-dihydrobenzo[b][1,4]dioxin-6-yl-2,2,3,3-d4)oxy)-3-fluoropiperidin-1-yl)-2,8-dimethyl-4H-pyrimido[1,2-b]pyridazin-4-one] | 94 | 16
3 | Cc1ccc(OC2CCN(c3nn4c(=O)cc(C)nc4cc3C)CC2)cn1 [Compound 52, 2,8-dimethyl-7-(4-((6-methylpyridin-3-yl)oxy)piperidin-1-yl)-4H-pyrimido[1,2-b]pyridazin-4-one] | 84 | 168
4 | Cc1cc2nccc(=O)n2nc1N1CC[C@@H](Oc2ccc3c(c2)OCO3)[C@H](F)C1 [Compound 53, 7-((3R,4R)-4-(benzo[d][1,3]dioxol-5-yloxy)-3-fluoropiperidin-1-yl)-8-methyl-4H-pyrimido[1,2-b]pyridazin-4-one] | 86 | 160
5 | Cc1cc2nccc(=O)n2nc1N1CC[C@@H](Oc2ccc3c(c2)OCCCO3)[C@H](F)C1 [Compound 55, 7-((3R,4R)-4-((3,4-dihydro-2H-benzo[b][1,4]dioxepin-7-yl)oxy)-3-fluoropiperidin-1-yl)-8-methyl-4H-pyrimido[1,2-b]pyridazin-4-one] | 80 | 135
6 | Cc1cc2nccc(=O)n2nc1N1CC[C@@H](Oc2ccc3c(c2)CCO3)[C@H](F)C1 [Compound 56, 7-((3R,4R)-4-((2,3-dihydrobenzofuran-5-yl)oxy)-3-fluoropiperidin-1-yl)-8-methyl-4H-pyrimido[1,2-b]pyridazin-4-one] | 80 | 206
7 | Cc1cc2nccc(=O)n2nc1N1CC[C@@H](Oc2ccc3c(c2)OCCC3)[C@H](F)C1 [Compound 57, 7-((3R,4R)-4-(chroman-7-yloxy)-3-fluoropiperidin-1-yl)-8-methyl-4H-pyrimido[1,2-b]pyridazin-4-one] | 83 | 149
8 | [2H]C1(Oc2ccc3c(c2)OCCCO3)CCN(c2nn3c(=O)cc(C)nc3cc2C)CC1 [Compound 59, 7-(4-((3,4-dihydro-2H-benzo[b][1,4]dioxepin-7-yl)oxy)piperidin-1-yl-4-d)-2,8-dimethyl-4H-pyrimido[1,2-b]pyridazin-4-one] | 85 | 59
9 | [2H]C1(Oc2ccc3c(c2)OCCO3)CCN(c2nn3c(=O)c(C)c(C)nc3cc2C)CC1 [Compound 60, 7-(4-((2,3-dihydrobenzo[b][1,4]dioxin-6-yl)oxy)piperidin-1-yl-4-d)-2,3,8-trimethyl-4H-pyrimido[1,2-b]pyridazin-4-one] | 91 | 28
10 | [2H]C1(Oc2ccc3c(c2)OCCO3)CCN(c2nn3c(=O)cc(C(F)F)nc3cc2C)CC1 [Compound 61, 2-(difluoromethyl)-7-(4-((2,3-dihydrobenzo[b][1,4]dioxin-6-yl)oxy)piperidin-1-yl-4-d)-8-methyl-4H-pyrimido[1,2-b]pyridazin-4-one] | 94 | 12
11 | [2H]C1(Oc2ccc3c(c2)OCO3)CCN(c2nn3c(=O)cc(C(F)(F)F)nc3cc2C)CC1 [Compound 63, 7-(4-(benzo[d][1,3]dioxol-5-yloxy)piperidin-1-yl-4-d)-8-methyl-2-(trifluoromethyl)-4H-pyrimido[1,2-b]pyridazin-4-one] | 102 | 342
12 | [2H]C1(Oc2ccc3c(c2)OCCCO3)CCN(c2nn3c(=O)cc(C(F)(F)F)nc3cc2C)CC1 [Compound 64, 7-(4-((3,4-dihydro-2H-benzo[b][1,4]dioxepin-7-yl)oxy)piperidin-1-yl-4-d)-8-methyl-2-(trifluoromethyl)-4H-pyrimido[1,2-b]pyridazin-4-one] | 104 | 172
13 | [2H]C1(Oc2ccc3c(c2)OC([2H])([2H])C([2H])([2H])O3)CCN(c2nn3c(=O)cc(C(F)F)nc3cc2C)CC1 [Compound 65, 2-(difluoromethyl)-7-(4-((2,3-dihydrobenzo[b][1,4]dioxin-6-yl-2,2,3,3-d4)oxy)piperidin-1-yl-4-d)-8-methyl-4H-pyrimido[1,2-b]pyridazin-4-one] | 108 | 20
14 | [2H]C1(Oc2ccc3c(c2)OCO3)CCN(c2nn3c(=O)cc(C(F)F)nc3cc2C)CC1 [Compound 66, 7-(4-(benzo[d][1,3]dioxol-5-yloxy)piperidin-1-yl-4-d)-2-(difluoromethyl)-8-methyl-4H-pyrimido[1,2-b]pyridazin-4-one] | 108 | 17
15 | [2H]C1(Oc2ccc3c(c2)OCCCO3)CCN(c2nn3c(=O)cc(C(F)F)nc3cc2C)CC1 [Compound 67, 2-(difluoromethyl)-7-(4-((3,4-dihydro-2H-benzo[b][1,4]dioxepin-7-yl)oxy)piperidin-1-yl-4-d)-8-methyl-4H-pyrimido[1,2-b]pyridazin-4-one] | 109 | 17
16 | [2H]C1(Oc2ccc3c(c2)OCO3)CCN(c2nn3c(=O)ccnc3cc2C)CC1 [Compound 68, 7-(4-(benzo[d][1,3]dioxol-5-yloxy)piperidin-1-yl-4-d)-8-methyl-4H-pyrimido[1,2-b]pyridazin-4-one] | 91 | 288

The remaining compounds from weak to strong by EC50, led by results:

Row | Emax at 30 µM [%] | EC50 [nM] | Structure (SMILES)
17 | 89 | 319 | Cc1cc2nccc(=O)n2nc1N1CC[C@@H](Oc2ccc3c(c2)CCOC3)[C@H](F)C1 [Compound 54, 7-((3R,4R)-3-fluoro-4-(isochroman-6-yloxy)piperidin-1-yl)-8-methyl-4H-pyrimido[1,2-b]pyridazin-4-one]
18 | 88 | 52 | [2H]C1(Oc2ccc3c(c2)OCO3)CCN(c2nn3c(=O)cc(C)nc3cc2C)CC1 [Compound 58, 7-(4-(benzo[d][1,3]dioxol-5-yloxy)piperidin-1-yl-4-d)-2,8-dimethyl-4H-pyrimido[1,2-b]pyridazin-4-one]
19 | 81 | 51 | [2H]C1(Oc2ccc3c(c2)OC([2H])([2H])C([2H])([2H])O3)CCN(c2nn3c(=O)c(C)c(C)nc3cc2C)CC1 [Compound 47, 7-(4-((2,3-dihydrobenzo[b][1,4]dioxin-6-yl-2,2,3,3-d4)oxy)piperidin-1-yl-4-d)-2,3,8-trimethyl-4H-pyrimido[1,2-b]pyridazin-4-one]
20 | 99 | 47 | [2H]C1(Oc2ccc3c(c2)OCCO3)CCN(c2nn3c(=O)cc(C)nc3cc2C)CC1 [Compound 62, 7-(4-((2,3-dihydrobenzo[b][1,4]dioxin-6-yl)oxy)piperidin-1-yl-4-d)-2,8-dimethyl-4H-pyrimido[1,2-b]pyridazin-4-one]
21 | 91 | 46 | [2H]C1(Oc2ccc3c(c2)OCCO3)CCN(c2nn3c(=O)ccnc3cc2C)CC1 [Compound 48, 7-(4-((2,3-dihydrobenzo[b][1,4]dioxin-6-yl)oxy)piperidin-1-yl-4-d)-8-methyl-4H-pyrimido[1,2-b]pyridazin-4-one]
22 | 77 | 26 | [2H]C1(Oc2ccc3c(c2)OC([2H])([2H])C([2H])([2H])O3)CCN(c2nn3c(=O)cc(C(F)(F)F)nc3cc2C)CC1 [Compound 45, 7-(4-((2,3-dihydrobenzo[b][1,4]dioxin-6-yl-2,2,3,3-d4)oxy)piperidin-1-yl-4-d)-8-methyl-2-(trifluoromethyl)-4H-pyrimido[1,2-b]pyridazin-4-one]
23 | 81 | 22 | [2H]C1(Oc2ccc3c(c2)OC([2H])([2H])C([2H])([2H])O3)CCN(c2nn3c(=O)c(F)c(C)nc3cc2C)CC1 [Compound 46, 7-(4-((2,3-dihydrobenzo[b][1,4]dioxin-6-yl-2,2,3,3-d4)oxy)piperidin-1-yl-4-d)-3-fluoro-2,8-dimethyl-4H-pyrimido[1,2-b]pyridazin-4-one]
24 | 97 | 20 | [2H]C1(Oc2ccc3c(c2)OC([2H])([2H])C([2H])([2H])O3)CCN(c2nn3c(=O)ccnc3c(C)c2C)CC1 [Compound 69, 7-(4-((2,3-dihydrobenzo[b][1,4]dioxin-6-yl-2,2,3,3-d4)oxy)piperidin-1-yl-4-d)-8,9-dimethyl-4H-pyrimido[1,2-b]pyridazin-4-one]
25 | 96 | 16 | [2H]C1(Oc2ccc3c(c2)OCCO3)CCN(c2nn3c(=O)ccnc3c(C)c2C)CC1 [Compound 70, 7-(4-((2,3-dihydrobenzo[b][1,4]dioxin-6-yl)oxy)piperidin-1-yl-4-d)-8,9-dimethyl-4H-pyrimido[1,2-b]pyridazin-4-one]
26 | 93 | 9 | [2H]C1(Oc2ccc3c(c2)OCCO3)CCN(c2nn3c(=O)c(F)c(C)nc3cc2C)CC1 [Compound 50, 7-(4-((2,3-dihydrobenzo[b][1,4]dioxin-6-yl)oxy)piperidin-1-yl-4-d)-3-fluoro-2,8-dimethyl-4H-pyrimido[1,2-b]pyridazin-4-one]
